Measured values: patent US10618939B2, “Hydrocarbon-stapled polypeptides for enhancement of endosome-lysosomal degradation” (The Hong Kong Polytechnic University, priority 2016, dated 2020)
“Also recorded” adds a separate entry of the source. Bridge positions count the residues as written; N and C are the ends. Square brackets hold non-standard residues; d marks the D form. Ends that are not written are not given here. Peptide text beside a SMILES is read from it. R8 = C=CCCCCCC[C@@](C)(N)C(=O)O; S5 = C=CCCC[C@](C)(N)C(=O)O

What was measured:
[1] = test system: mutated EGFR in H1975 cell lines; assay: EGFR degradation assay in H1975 cells; assay type: cell-based; details: H1975 NSCLC
EGFR in HEK293T cells = assay: EGFR degradation assay in HEK293T cells; assay type: cell-based
Description: (§1) HEK293T or A549 cells in 6-well plate were washed with PBS two times and serum-starved overnight in DMEM. EGFR endocytosis was induced by incubation with DMEM medium (with 20 mM HEPES and 0.2% BSA) containing 200 ng/mL of EGF (Invitrogen). Cells were collected at each time point after EGF stimulation and lysed in Laemmli sample buffer (62.5 mM Tris-HCl, pH 6.8, 2% SDS, 25% glycerol, 5% β-mercaptoethanol). 20 μg protein lysate was collected for each time point, analyzed by SDS-PAGE and immunoblotted with anti-EGFR antibody (1:2000, Santa Cruz Biotechnology).

HEK293T cells = assay: LC3 lipidation western blot in HEK293T cells; assay type: cell-based; details: 10 μM and 20 μM, absence or presence of chloroquine (50 μM)
Description: Transient DNA transfection was performed using Lipofectamine 2000 (Invitrogen). For Co-IP experiment to measure interaction between UVRAG and endogenous Beclin 1, FLAG-tagged UVRAG plasmids were transfected into HEK293T cells. […] For immunoblotting assay of LC3-II, p62 and EGFR degradation, FLAG-tagged UVRAG mutant plasmids were transfected into HEK293T cells, HeLa cell stably expressing GFP-LC3 and A549 NSCLC cells respectively. Cells were lysed in IP buffer (25 mM HEPES PH 7.5, 10 mM MgCl2, 150 mM NaCl, 1 mM EDTA.2Na, 1% Nonidet P-40, 1% Triton X-100 and 2% glycerol) or Laemmli sample buffer (62.5 mM Tris-HCl, pH 6.8, 2% SDS, 25% glycerol, 5% β-mercaptoethanol) with freshly added EDTA-free protease inhibitor cocktail (Roche). Protein lysate was either directly subject to immunoblot assay or Co-IP. For Co-IP, Lysates were incubated with FLAG magnetic beads (Sigma) overnight at 4° C. The beads were washed with 1×IP lysis buffer 5 times and then eluted with 2×SDS sample buffer.

[2] = test system: wild type EGFR in A549 cell line; assay: EGFR degradation assay in A549 cells; assay type: cell-based; details: A549 NSCLC
Description: as §1

[3] = target: T1, Beclin 1 coiled coil domain (Rattus norvegicus, UniProt Q91XJ1); assay: Light Scattering (LS) profile, dimer-to-monomer transition of Beclin 1 coiled coil domain; assay type: biochemical
T1 construct: thioredoxin-6xHis fusion (3C protease site) (cleaved yes); made in house; host or cells: Escherichia coli BL21 (DE3)
Source text: Tat sequence (SEQ ID NO: 13: YGRKKRRQRRR) was linked in front of all peptides except the rhodamine B labeled one to enhance cell permeability. The computationally optimized stapled peptide SP4 (SEQ ID NO: 4) was chosen and synthesized by a commercial vendor following the synthetic method pioneered by Kim et. al. (Kim, Grossmann et al. 2011) (FIG. 1C). The purified product was confirmed by mass spectroscopy and HPLC. The importance of the hydrocarbon staple in maintaining the α-helical structure of the designed peptide was confirmed by circular dichroism (CD) measurements (FIG. 1D). […] The Light Scattering (LS) profile of Beclin 1 coiled coil domain in absence of SP4 (SEQ ID NO: 4) indicates a homodimer with predicted molecular weight of 24.8 kDa.

[4] = test system: GFP-tagged Beclin 1 in A549 cell; assay: Confocal colocalization with GFP-Beclin 1 in A549 cells; assay type: cell-based; details: A549 cells transiently expressing GFP-Beclin 1, 20 μM, 30 minutes
Description: A549 cells transiently expressing GFP-Beclin 1 were treated with 20 μM Rhodamine-SP4 (SEQ ID NO: 4) for 30 minutes and observed under a confocal microscope.

T1 sequence (Q91XJ1 174-266 limits assumed): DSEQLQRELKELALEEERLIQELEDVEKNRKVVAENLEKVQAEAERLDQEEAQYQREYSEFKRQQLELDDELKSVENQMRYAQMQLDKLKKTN

| Compound | EGFR degradation [1] | EGFR degradation (EGFR in HEK293T cells) | LC3 lipidation (HEK293T cells) | EGFR degradation [2] | dimer-to-monomer transition in Beclin 1 coiled coil domain [3] | colocalization with GFP-Beclin 1 [4] |
| --- | --- | --- | --- | --- | --- | --- |
| CC[C@H](C)[C@H](NC(=O)[C@H](CC(C)C)NC(=O)[C@H](CCCNC(=N)N)NC(C)=O)C(=O)N[C@@H](CO)C(=O)N[C@@H](CCC(=O)O)C(=O)N[C@@H](CC(C)C)C(=O)N[C@]1(C)CCCCCC/C=C/CCC[C@@](C)(C(=O)N[C@@H](C)C(N)=O)NC(=O)[C@H](CCCNC(=N)N)NC(=O)[C@H](CCC(N)=O)NC(=O)[C@H](CCCCN)NC(=O)[C@H](CCC(=O)O)NC(=O)[C@H](CCCNC(=N)N)NC(=O)[C@H](CC(=O)O)NC1=O [SP4] (Ac-RLISEL[R8]DREKQR[S5]A-NH2; staple (E) 7-14; N-terminus and C-terminus assumed) | significantly enhanced EGFR degradation | significantly enhanced EGFR degradation | enhanced LC3 lipidation in dosage-dependent manner | significantly enhanced EGFR degradation | can induce dimer-to-monomer transition | – |
| Rhodamine-labeled SP4: rhodamine B labeled SP4, without Tat sequence (RLISEL[R8]DREKQR[S5]A; staple 7-14 (inferred); also: rhodamine B label, position not given here) | – | – | – | – | – | colocalizes; also recorded: co-localized well |
